Data on 13 compounds can be found in patent US20260048047A1, “SMALL-MOLECULE ACTIVATORS OF MYCOBACTERIUM TUBERCULOSIS ADENYLYL CYCLASE” (priority 2022, published 2026).

The subject of data set [1] is M. tuberculosis. Put plainly: Extracellular activity against M. tuberculosis in cholesterol media (Alamar Blue reduction assay). It counts as cell-based, Mycobacterium tuberculosis. A general note: Alamar Blue is a resazurin reagent that responds to reducing activity.
Data set [2] has as its system prpD'::GFP reporter. It counts as cell-based, Mycobacterium tuberculosis. As to conditions: V-59 10 μM.
Data set [3] deals with mammalian AC enzymes. As to conditions: human cell lines, 10 μM.
A short description of data set [4]: Plasma exposure over the cholesterol-media EC50 after oral dosing in mice. Type of data set: in vivo.
Data set [5] has as its system Mtb cholesterol degradation. Put plainly: Catabolic release of 14CO2 from radiolabelled lipid by Mtb. It counts as cell-based, Mycobacterium tuberculosis. On the procedure: Because V-59 impairs growth of Mtb in cholesterol media, whether using V-59 to chemically activate Rv1625c inhibits the bacterium's ability to break down cholesterol was tested. When Mtb degrades the A-ring of [4-^14C]-cholesterol, [1-^14C]-pyruvate is released; subsequently, pyruvate dehydrogenase activity mediates the conversion of [1-^14C]-pyruvate into acetyl-CoA and ^14CO2. Therefore, to quantify cholesterol degradation in Mtb, ^14CO2 released following [4-^14C]-cholesterol breakdown by the bacteria was captured.

The test system of data set [6] is Mtb. It counts as in vivo, BALB/c mice. To be noted: for Reduction in lung CFUs: mouse, in vivo.
Data set [7] has as its system Mtb. Kind of data set: Mtb growth inhibition in standard rich growth media (7H9 OADC) or acetate media. Type of data set: cell-based, Mycobacterium tuberculosis. As to conditions: media containing acetate.
The subject of data set [8] is Mtb in macrophages. Kind of data set: Inhibition of Mtb replication in macrophages (intramacrophage EC50). It counts as cell-based, Mycobacterium tuberculosis.
Data set [9] concerns the target T1, Rv1625c (Mycobacterium tuberculosis, UniProt P9WQ35).
T1 construct: endogenous in cells; host or cells: whole Mycobacterium tuberculosis (WT; CompFull = ΔRv1625c complemented with the entire rv1625c gene)
T1 sequence (P9WQ35 1-443): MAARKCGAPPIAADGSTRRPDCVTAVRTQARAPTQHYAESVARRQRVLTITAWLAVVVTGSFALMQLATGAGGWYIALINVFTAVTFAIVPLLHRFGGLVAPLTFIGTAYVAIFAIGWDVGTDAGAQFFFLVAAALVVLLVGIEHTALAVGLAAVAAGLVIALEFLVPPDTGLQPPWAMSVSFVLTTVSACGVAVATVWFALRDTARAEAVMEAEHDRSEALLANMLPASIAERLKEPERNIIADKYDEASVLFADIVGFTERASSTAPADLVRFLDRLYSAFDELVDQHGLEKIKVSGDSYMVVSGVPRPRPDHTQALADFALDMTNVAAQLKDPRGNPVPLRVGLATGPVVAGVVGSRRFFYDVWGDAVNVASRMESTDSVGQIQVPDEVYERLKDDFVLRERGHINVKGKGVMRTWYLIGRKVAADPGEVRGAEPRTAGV
It counts as cell-based.

The test system of data set [10] is Mtb. Kind of data set: Chronic Mtb infection in C3HeB/FeJ mice. It counts as in vivo. As to conditions: infected and treated in the same manner.
Data set [11] concerns non-replicating M. tuberculosis. Put plainly: Hu Coats 100-day old culture model. To be noted: for CFU reduction versus PB: added to PB; for Cidal activity compared to the NixTB combination: with Pretomanid and Bedaquiline.
Data set [12] concerns Mtb H37Ra. As to conditions: read-out: IC50 against Mtb H37Ra in cholesterol media.
The test system of data set [13] is Mtb H37Rv (Mtb-lux) inside PMA-differentiated THP-1 cells. Kind of data set: Intramacrophage activity in THP-1 cells. Type of data set: cell-based, Mycobacterium tuberculosis.
Data set [14] deals with Mtb H37Rv. Kind of data set: MIC determination in Mtb H37Rv (MABA, 7H12-Cholesterol media). Type of data set: cell-based. As to conditions: Mycobacterium tuberculosis, two batches. On the procedure: MIC Determination in Mtb H37Rv
The minimum inhibitory concentration (MIC) of the test compounds were determined using ten-point, two-fold serial dilutions in 7H12-Cholesterol media using Microdilution Alamar Blue Assay (MABA) as previously described (Cho et al., 2015; VanderVen et al., 2015). Briefly, Mycobacterial cells at the mid-logarithmic phase of growth were diluted (1:1,000). Twenty μl of this dilution was added to each well containing 2-fold serially diluted test compounds and incubated for 7 days at 37° C. Alamar Blue (Invitrogen) reagent (4 μL per well) was added along with 20% Tween 80 (2.5 μL per well, Sigma Aldrich) to evaluate bacterial cell viability. Plates were read 24 h after adding Alamar Blue at absorbance 570 nm with a reference wavelength of 600 nm.

In data set [15] the test system is Mtb inside J774.1 macrophages. Kind of data set: Intramacrophage activity in J774.1 cells. Type of data set: cell-based, Mycobacterium tuberculosis.
Data set [16] concerns Mtb. Kind of data set: Checkerboard combination assay with known anti-TB drugs (FIC index). It counts as cell-based, Mycobacterium tuberculosis. As to conditions: nine anti-TB drugs. From the text:
Combination Testing of mCLB073 with Known Anti-TB Drugs
To test for interactions between mCLB073 and known anti-tubercular drugs in combination in an in vitro growth assay, a checkerboard assay to test for interactions between mCLB073 and drugs with known anti-TB activity using Alamar Blue as a viability marker (Lechartier et al., 2012) was used. Drug combinations were categorized based on fractional inhibitory concentration (FIC) index of FIC≤0.5 as synergistic, 0.5<FIC≤1 as additive, 1<FIC≤4 as no interaction and FIC ≥4 as antagonism (Hall et al., 1983).
Performed were synergy studies between mCLB073 and nine anti-TB drugs: Moxifloxacin (MOXI), Isoniazid (INH), Rifampicin (RIF), Streptomycin (STR), Levofloxacin (LEV), Linezolid (LIN), Ethionamide (ETH), Pretomanid (PA-824), and Bedaquiline (BDQ). A checkerboard titration in a microtiter plate was used as previously described (Hsieh et al., 1993).

[17] abbreviates: Mycobacterium tuberculosis, 240 h, 7H12-Cholesterol media, 10 days, read-out: Cholesterol broth: alamar blue--EC50.

In brackets after ≈: the same amount, converted by molar mass. Entries after “also recorded” stand apart in the source; their conditions may differ. Read-outs that look alike come from different tables or passages of the source.

In the case of `Cc1nonc1CC(=O)N1CCN(c2ncn(-c3ccc(F)cc3)n2)CC1` [Compound 250, 1-(4-(1-(4-fluorophenyl)-1H-1,2,4-triazol-3-yl)piperazin-1-yl)-2-(4-methyl-1,2,5-oxadiazol-3-yl)ethan-1-one], the EC50 (commonly the concentration at which the effect is half-maximal) in data set [1] (setting [17]) was above 10 µM.

Take `Cc1nonc1NC(=O)C1CCC(c2nc(-c3ccc(F)cc3)no2)CC1` (centres unmarked) [Compound 251, 4-(3-(4-fluorophenyl)-1,2,4-oxadiazol-5-yl)-N-(4-methyl-1,2,5-oxadiazol-3-yl)cyclohexane-1-carboxamide]: the concentration giving a half-maximal response (EC50) in [1] (setting [17]) is above 10 µM.

In the case of `Cc1nonc1CC(=O)N1CCC(c2cnc(-c3ccc(F)cc3)nc2)CC1` [Compound 252, 1-(4-(2-(4-fluorophenyl)pyrimidin-5-yl)piperidin-1-yl)-2-(4-methyl-1,2,5-oxadiazol-3-yl)ethan-1-one], in data set [1] (setting [17]), the EC50 was determined as 2.91 µM.

With `Cc1nonc1CC(=O)N1CCC(c2ncc(-c3ccc(F)cc3)cn2)CC1` [Compound 253, 1-(4-(5-(4-fluorophenyl)pyrimidin-2-yl)piperidin-1-yl)-2-(4-methyl-1,2,5-oxadiazol-3-yl)ethan-1-one], the EC50 in [1] (setting [17]) is above 10 µM.

As to `Cc1cccc(OC2CCN(C(=O)Cc3nonc3C)CC2)c1C` [Compound 254, 1-(4-(2,3-dimethylphenoxy)piperidin-1-yl)-2-(4-methyl-1,2,5-oxadiazol-3-yl)ethan-1-one], the EC50 in [1] (setting [17]) is above 10 µM.

For `Cc1nonc1CC(=O)N1CCC(c2ccc(-c3ccc(F)cc3)nn2)CC1` [Compound 255, 1-(4-(6-(4-fluorophenyl)pyridazin-3-yl)piperidin-1-yl)-2-(4-methyl-1,2,5-oxadiazol-3-yl)ethan-1-one], the EC50 in data set [1] (setting [17]) is above 10 µM.

On to `Cc1nonc1CC(=O)N1CCCC(c2nc(-c3ccc(F)cc3)no2)C1` (centres unmarked) [Compound 256, 1-(3-(3-(4-fluorophenyl)-1,2,4-oxadiazol-5-yl)piperidin-1-yl)-2-(4-methyl-1,2,5-oxadiazol-3-yl)ethan-1-one], for which the EC50 in [1] (setting [17]) is above 10 µM.

`Cc1nonc1CC(=O)N1CC(c2nc(-c3ccc(F)cc3)no2)C1` [Compound 257, 1-(3-(3-(4-fluorophenyl)-1,2,4-oxadiazol-5-yl)azetidin-1-yl)-2-(4-methyl-1,2,5-oxadiazol-3-yl)ethan-1-one]: the EC50 in [1] (setting [17]) was above 10 µM.

On to `Cc1nonc1CC(=O)N1CCC2(CCC2n2nnc(-c3ccc(F)cc3)n2)CC1` (centres unmarked) [Compound 258, 1-(1-(5-(4-fluorophenyl)-2H-tetrazol-2-yl)-7-azaspiro[3.5]nonan-7-yl)-2-(4-methyl-1,2,5-oxadiazol-3-yl)ethan-1-one], for which the EC50 in [1] (setting [17]) was above 25 µM.

Take `Cc1nonc1CC(=O)N1CCC(n2nnc(-c3ccc(F)cc3)n2)CC1` [Compound V-59, 1-(4-(5-(4-fluorophenyl)-2H-tetrazol-2-yl)piperidin-1-yl)-2-(4-methyl-1,2,5-oxadiazol-3-yl)ethan-1-one]: the “Decrease of prpD'::GFP signal in CompFull” value in data set [2] (CompFull strain) is listed as around 90%. The “Decrease of prpD'::GFP signal in WT” value in [2] (WT) was around 50%. Further, the “Activation of ACs in mammalian cells” value in data set [3] was “No evidence”. Besides, the “Plasma exposure above the EC50 (cholesterol media)” value in data set [4] (oral dosing in mice at 20 mg/kg) is recorded as “approximately 24 hours”. In addition, the “Decrease of 14CO2 release from [4-14C]-cholesterol” value in data set [5] (WT Mtb) is recorded as around 89%. Moreover, the “Effect on 14CO2 release from [U-14C]-palmitate” value in data set [5] (fatty acid breakdown) is listed as “no measurable effect”. Further, in data set [6] (BALB/c, 50 mg/kg oral once-daily, weeks 4-8), the “Reduction of extent of lung inflammation” value was around 50%. Besides, the “Reduction in lung CFUs” value in data set [6] (po, 50 mg/kg) was around 0.4 log10; in [10], around 0.5 log10. Also, the EC50 in data set [1] (Mycobacterium tuberculosis, read-out: EC50, inhibition of Mtb growth in cholesterol media) came out at 0.7 µM; in [8] (Mycobacterium tuberculosis, Macrophage, read-out: EC50, inhibition of Mtb replication in macrophages), 300 nM. In addition, the “Inhibition of Mtb growth in acetate media or standard rich growth media” value in data set [7] is listed as “not”. Also, the “cAMP induction in WT Mtb” value in [9] is on record as around 70 fold. For the same compound, in data set [9] (CompFull strain), the “cAMP induction in CompFull Mtb” value is given as around 140 fold.

Regarding `CC(=O)NC[C@H]1CN(c2ccc(N3CCOCC3)c(F)c2)C(=O)O1` [LIN, Linezolid, reference compound], the “CFU reduction versus PB” value in data set [11] (50 μM) is given as “superior CFU reduction”.

For the compound `Cn1ncnc1CC(=O)N1CCC(c2nc(-c3ccc(Cl)c(Cl)c3)no2)CC1` [mCLB073, 1-(4-(3-(3,4-dichlorophenyl)-1,2,4-oxadiazol-5-yl)-1-piperidinyl)-2-(2-methyl-2H-1,2,4-triazol-3-yl)-1-ethanone], the IC50 (commonly the concentration at which inhibition is half-maximal) in data set [12] turned out to be 30.1 nM. The “Efficacy when tested individually” value in [11] (100-day-old culture, alone) was “no efficacy”. Moreover, the “Activity in combination versus NixTB combination” value in data set [11] (Pretomanid 20.87 μM, Bedaquiline 2.25 μM, test drug 20, 8, 1 μM) is reported as “comparable”. In addition, the “CFU reduction versus PB” value in [11] (50 μM) is reported as “superior CFU reduction”. Further, the “Cidal activity compared to the NixTB combination” value is listed as “complete sterilization; also recorded: two log units better” in data set [11] (50 μM) and “one-log improvement” in data set [11] (all compounds at 20 μM). In data set [4] (dosed orally in mice), the “Plasma exposure over the EC50 identified in cholesterol media” value is “at least 24 hours”. Besides, in data set [6] (BALB/c, 30 mg/kg oral once-daily, weeks 4-8), the “Decrease of extent of lung pathology” value is reported as around 45%. The “Lung bacterial burden when added to sub-optimal rifampicin” value in data set [6] (BALB/c, 30 mg/kg plus sub-optimal dose of rifampicin) is “did not increase the bacterial burden”. The “Reduction in lung CFUs” value is recorded as around 0.4 log10 in data set [6] (5 mg/kg) and around 0.4 log10 in data set [6] (po, 30 mg/kg). In addition, the “Sinf (maximum inhibition), THP-1” value in data set [13] is given as 76.8%. The EC50 in [13] (Mycobacterium tuberculosis, H37RV, THP-1, 72 h, luminescence, day 3, read-out: EC50, growth of Mtb inside PMA-differentiated THP-1 cells) is 40 nM; in [15] (Mycobacterium tuberculosis, J774.1, 72 h, luminescence, day 3, read-out: EC50, growth of Mtb inside J774.1 macrophages) it was 50 nM. Moreover, in data set [14], the MIC90 (usually an inhibitory concentration at the 90% level, which refers to growth in some studies and to a panel of isolates in others) turned out to be 0.28 µM (≈ 0.118 µg/mL). The “Sinf (maximum inhibition), J774.1” value in data set [15] is reported as 42.1%. The “Antagonism with known anti-TB drugs” value in [16] was “did not display any antagonism”.

On to `Cn1ncnc1CC(=O)N1[C@@H]2CC(c3nc(-c4ccc(Cl)c(Cl)c4)no3)C[C@H]1C2` (some centres unmarked) [mCLF025], for which the EC50 in data set [1] (Table S2, read-out: Cholesterol EC50) is above 30 µM; in [8] (Table S2, read-out: Macrophages EC50) it was above 30000 nM. For the same compound, in [1] (Table S2 assays), the “Potency of trans isomer in words” value is “inactive”.
